System: Human Embryonic Kidney cells, strain 293A
Experiment: Transfection of Human Embryonic Kidney cells with CMV-GFP plasmid complexed with SAINT-molecules, GFP expression by FACS
Assay type: cell-based
Conditions: 293A cells, 12 well plates; 500 ng CMV-GFP plasmid complexed with 3.75 nm SAINT molecules or linker per well; FACS 48 hours after transfection
Description: FIG. 1 is the result of Human Embryonic Kidney cells, strain 293A, cultured in 12 well plates and are transfected with 4 combinations of SAINT-molecules (i.e. SAINT-18, SAINT-18 coupled to RGD, a mixture of SAINT-18 and SAINT-18 coupled to RGD, and SAINT-18 linker).
Human Embryonic Kidney cells are difficult to be transfected. When using these cells, main competing transfection methods (of other manufacturers), require several micrograms of plasmid DNA for successful transfection. Combined with SAINT-18, 1 μg (per 12 wells) normally results in a transfection rate above 90%. To be able to visualize the enhancing effect of the targeting moiety SAINT-18-RGD, in this protocol we used a low amount of plasmid DNA (500 ng per 12 wells). The structural formula of SAINT-linker-RGD is depicted in […]. In addition, an RGD-peptide is coupled to the SATA-group of the SAINT-Linker, as described in the present invention. The RGD group is a targeting moiety for the integrin receptor family and is though to increase the transfection efficacy. Human Embryonic Kidney cells, strain 293A, are cultured in 12 well plates and are transfected with 4 combinations of Saint-molecules (i.e. SAINT-18, SAINT-18 coupled to RGD, a mixture of SAINT-18 and SAINT-18 coupled to RGD, and only a linker molecule as a reference). […] 48 hours after transfection GFP expression is measured by FACS analysis. […]

For `CCCCCCCC/C=C\CCCCCCCCC(CCCCNC(=O)C1CCC(CN2C(=O)CC(SCC(=O)NC(=N)NCCCC(C)C(=O)NCC(=O)NC(CC(=O)O)C(=O)O)C2=O)CC1)c1cc[n+](C)cc1.[Cl-]` (stereo not shown) [S18/RGD], the “transfection ability (percentage of GFP positive cells, FIG. 1, result in words)” value was “able to transfect cells”.
